System: B16-F10/OVA cells
Test: Lung metastasis after intranasal melanoma vaccination, pathological observation of lung
Assay type: in vivo
Conditions: C57BL/6 mice inoculated with B16-F10/OVA cells, intranasal 100 μg/dose once a week for 3 weeks, one week after final vaccination
Method: 6-week old female C57BL/6 mice were intravascularly inoculated with B16-F10/OVA cells (melanoma cells expressing OVA epitopes, 5×10^5 cells/mouse). One week later, mice were divided into 4 groups (n=6 per group): vaccinated with PBS, ovalbumin (OVA), OVA adjuvanted with 0.1% PELC and OVA adjuvanted with nanoPELC. The mice were intranasally vaccinated with PBS or OVA formulation (100 μg/dose) once a week for 3 weeks. One week after the final vaccination, some of the mice were sacrificed, and the lung was isolated for pathological observation.

Substance: ovalbumin
- melanoma infection area in the lungs (lung metastasis): not as serious as the PBS group, but it still had a certain area
